According to ChEMBL document CHEMBL5604063, “ASAP - DENV-2 NS2B-NS3 protease fluorescence dose response” (2024):
Values joined by “and” are separate entries in the source; they are usually repeats but may differ in a detail not shown here. Identical values can stand only once.

target: Genome polyprotein (dengue virus type 2, UniProt P29990); assay type: functional, Thailand/16681/1984
Sequence (P29990 1346-1475 limits assumed): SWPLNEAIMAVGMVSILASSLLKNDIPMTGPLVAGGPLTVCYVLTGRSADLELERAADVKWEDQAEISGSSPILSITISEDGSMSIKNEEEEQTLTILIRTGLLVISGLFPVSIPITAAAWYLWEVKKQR
Sequence (P29990 1476-2093 limits assumed): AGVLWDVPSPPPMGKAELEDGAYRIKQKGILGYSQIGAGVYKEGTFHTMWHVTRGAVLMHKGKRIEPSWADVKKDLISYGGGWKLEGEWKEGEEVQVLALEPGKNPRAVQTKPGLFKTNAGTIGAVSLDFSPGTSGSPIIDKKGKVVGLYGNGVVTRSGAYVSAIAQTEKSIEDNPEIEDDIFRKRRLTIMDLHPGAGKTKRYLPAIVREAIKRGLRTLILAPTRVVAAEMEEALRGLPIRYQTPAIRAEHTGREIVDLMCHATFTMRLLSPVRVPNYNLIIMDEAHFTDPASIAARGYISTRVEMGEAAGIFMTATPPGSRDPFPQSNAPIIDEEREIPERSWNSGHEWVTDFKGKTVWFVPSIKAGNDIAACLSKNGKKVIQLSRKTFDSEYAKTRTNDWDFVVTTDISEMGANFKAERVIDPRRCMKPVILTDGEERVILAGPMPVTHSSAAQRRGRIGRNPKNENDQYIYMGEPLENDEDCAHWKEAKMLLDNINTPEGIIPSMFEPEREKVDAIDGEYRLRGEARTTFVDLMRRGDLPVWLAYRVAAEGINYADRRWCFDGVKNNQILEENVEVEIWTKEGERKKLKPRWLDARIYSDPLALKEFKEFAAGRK

| Structure (SMILES) | IC50 |
| --- | --- |
| NCc1ccc(-c2ncc(OCC3CCNCC3)nc2-c2ccc(C3CCOCC3)cc2)cc1 | > 99.5 µM |
| CCn1cc(-c2ccnc(N(C)C)c2)nc(N2CC[C@@H](CO)C2)c1=O | > 99.5 µM |
| COc1ncccc1-c1ccc([C@@H](NC(=O)OCc2ccccc2)C(=O)Nc2cccc(CN)c2)cc1 | 23 µM |
| CCn1cc(-c2ccc(OC)c(C)c2)nc(N2CC[C@@H](CO)C2)c1=O | > 99.5 µM |
| Cn1cc(Nc2ccc(S(=O)(=O)Nc3ccc(Cl)cc3C(=O)O)cn2)cn1 | > 99.5 µM |
| NCc1cccc(NC(=O)[C@@H](NC(=O)OCc2ccccc2)c2ccc(-c3ccnc(N)c3)cc2)c1 | > 99.5 µM |
| CCOc1ccc(F)cc1-c1cn(CC)c(=O)c(N2CC[C@@H](CO)C2)n1 | > 99.5 µM |
| CCc1ccc(-c2ccc([C@@H](NC(=O)OCc3ccccc3)C(=O)Nc3cccc(CN)c3)cc2)cc1 | 6.61 µM |
| CCn1cc(-c2cncc(OC)c2)nc(N2CC[C@@H](CO)C2)c1=O | > 99.5 µM |
| CCn1cc(-c2cccc(CN(C)C)c2)nc(N2CC[C@@H](CO)C2)c1=O | > 99.5 µM |
| CCn1cc(-c2ccccc2C(C)C)nc(N2CC[C@@H](CO)C2)c1=O | > 99.5 µM |
| CCn1cc(-c2ccc3c(c2)CCNC3)nc(N2CC[C@@H](CO)C2)c1=O | > 99.5 µM |
| CCn1cc(-c2ccc3ocnc3c2)nc(N2CC[C@@H](CO)C2)c1=O | > 99.5 µM |
| CCn1cc(-c2cccc(-n3cccn3)c2)nc(N2CC[C@@H](CO)C2)c1=O | > 99.5 µM |
| CCn1cc(-c2cccc(OC)c2F)nc(N2CC[C@@H](CO)C2)c1=O | > 99.5 µM |
| CCn1cc(-c2cn(C)nc2C)nc(N2CC[C@@H](CO)C2)c1=O | > 99.5 µM |
| COc1cccc(-c2ccc([C@@H](NC(=O)OCc3ccccc3)C(=O)Nc3cccc(CN)c3)cc2)c1 | 9.12 µM and 6.13 µM and 6.64 µM |
| Cc1cccc(-c2ccc([C@@H](NC(=O)OCc3ccccc3)C(=O)Nc3cccc(CN)c3)cc2)c1 | 9.31 µM |
| CS(=O)(=O)NC(=O)c1cc(Cl)ccc1NS(=O)(=O)c1ccc(Oc2ccccc2Cl)cc1 | 12.2 µM |

| Structure (SMILES) | IC50 |
| --- | --- |
| CCc1ccccc1-c1ccc([C@@H](NC(=O)OCc2ccccc2)C(=O)Nc2cccc(CN)c2)cc1 | 9.17 µM |
| CCn1cc(C2=CCCNC2)nc(N2CC[C@@H](CO)C2)c1=O | > 99.5 µM |
| CCn1cc(-c2ccc3nn(C)cc3c2)nc(N2CC[C@@H](CO)C2)c1=O | > 99.5 µM |
| NCc1cccc(NC(=O)[C@@H](NC(=O)OCc2ccccc2)c2ccc(-c3ccc(N)nc3)cc2)c1 | > 99.5 µM |
| Cn1cc(-c2ccc([C@@H](NC(=O)OCc3ccccc3)C(=O)Nc3cccc(CN)c3)cc2)cn1 | > 99.5 µM |
| CCn1cc(-c2c[nH]c3ncccc23)nc(N2CC[C@@H](CO)C2)c1=O | > 99.5 µM |
| CCn1cc(-c2ccc(C(F)F)nc2)nc(N2CC[C@@H](CO)C2)c1=O | > 99.5 µM |
| NCc1cccc(NC(=O)[C@@H](NC(=O)OCc2ccccc2)c2ccc(-c3cncnc3)cc2)c1 | > 99.5 µM |
| NCc1cccc(NC(=O)[C@@H](NC(=O)OCc2ccccc2)c2cccc(OCc3cncnc3)c2)c1 | > 99.5 µM |
| CCn1cc(-c2cnc3ccnn3c2)nc(N2CC[C@@H](CO)C2)c1=O | > 99.5 µM |
| Cc1ccc(F)c(-c2ccc([C@@H](NC(=O)OCc3ccccc3)C(=O)Nc3cccc(CN)c3)cc2)c1 | 9.46 µM |
| NCc1cccc(NC(=O)[C@@H](NC(=O)OCc2ccccc2)c2ccc(-c3cccnc3F)cc2)c1 | 71.4 µM |
| NCc1cccc(NC(=O)[C@@H](NC(=O)OCc2ccccc2)c2ccc(-c3cc4cccnc4s3)cc2)c1 | 6.07 µM |
| CCn1nccc1-c1cn(CC)c(=O)c(N2CC[C@@H](CO)C2)n1 | > 99.5 µM |
| CCn1cc(-c2ccc([C@@H](NC(=O)OCc3ccccc3)C(=O)Nc3cccc(CN)c3)cc2)cn1 | > 99.5 µM |
| Cc1n[nH]cc1-c1ccc([C@@H](NC(=O)OCc2ccccc2)C(=O)Nc2cccc(CN)c2)cc1 | > 99.5 µM |
| CCn1cc(-c2cccc(-c3ccccc3)c2)nc(N2CC[C@@H](CO)C2)c1=O | > 99.5 µM |
| CCn1cc(-c2ccncc2F)nc(N2CC[C@@H](CO)C2)c1=O | > 99.5 µM |
| CCn1cc(-c2ccccc2C(=O)OC)nc(N2CC[C@@H](CO)C2)c1=O | > 99.5 µM |
